Test results as given in patent US20250340543A1, “GPR84 ANTAGONISTS AND USES THEREOF” (Liminal BioSciences Limited, priority 2021, published 2025).

How the values were obtained:
[1] = target: T1, GPR84 (Homo sapiens (Human), UniProt Q9NQS5); experiment: Gai biosensor BRET assay (GPR84-mediated activation of Gai, antagonist mode against agonist ZQ-16); assay type: cell-based; conditions: for IC50: HEK293 cells, 200 nmol/L GPR84 agonist ZQ-16, read-out: hGPR84 IC50; for inhibition at 2 µM: compound tested at 2 μM (concentration code A); for inhibition at 10 µM: compound tested at 10 μM (concentration code D)
Method in brief: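 Transiently transfected HEK293 cells expressing GPR84, Gαi2-Rluc8, GFP10-Gγ2 and Gβ1, in Tyrode's buffer pH 7.5. Compounds pre-incubated 5 min at 37° C, then 200 nmol/L ZQ-16 for 5 min at room temperature; BRET² with coelenterazine 400A, ligand-promoted net BRET after background and vehicle subtraction.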
Target sequence in this assay (Q9NQS5 whole entry): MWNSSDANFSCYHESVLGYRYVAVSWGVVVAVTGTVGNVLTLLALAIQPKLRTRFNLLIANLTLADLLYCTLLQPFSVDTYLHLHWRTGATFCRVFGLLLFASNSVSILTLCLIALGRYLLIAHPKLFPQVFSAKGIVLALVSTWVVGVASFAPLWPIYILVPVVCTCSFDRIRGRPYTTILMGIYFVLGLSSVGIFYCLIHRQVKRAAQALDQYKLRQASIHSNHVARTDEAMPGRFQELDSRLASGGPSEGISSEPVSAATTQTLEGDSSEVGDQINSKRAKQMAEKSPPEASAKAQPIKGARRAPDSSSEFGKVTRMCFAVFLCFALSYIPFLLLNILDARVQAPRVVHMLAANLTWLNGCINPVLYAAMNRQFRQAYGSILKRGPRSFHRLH

[2] = test system: neutrophils; experiment: Neutrophil migration assay (embelin as chemotactic agent, transwell, ATPlite readout); assay type: cell-based; conditions: for Human Neutrophil migration inhibition - fold potency to Control Compound: IC50 normalized to GPR84 antagonist Control Compound; for IC50: Neutrophil, human neutrophils, embelin as chemotactic agent, read-out: Human Neutrophil migration inhibition IC50
Protocol: Neutrophil migration assay. After isolation, neutrophils were resuspended in chemotaxis buffer (DMEM supplemented with 10 mM HEPES) at a concentration of 8.9×10^6 cells/ml. In a 96-well plate, 20 μl of compound solution in chemotaxis buffer is added to 180 μl of cell suspension. After incubation at 37° C. for 30 minutes, 75 μL of cell suspension is transferred in the upper chamber of a 5 μm pore size Corning HTS transwell. 235 μL of chemotaxis buffer containing the chemotactic agent (embelin) is added to the lower chamber of the transwell. After a 60-minute incubation time at 37° C. in 5% CO2, the upper chamber of the transwell is removed and the plate is centrifuged at 1500 rpm for 6 minutes. Supernatant is removed and cells resuspended in 100 ul of PBS. ATP content was assessed using ATPlite Luminescence Assay System® according to manufacturer instructions (Perkin Elmer, Buckinghamshire, UK). Briefly, 50 μL of ATPlite buffer and 50 μL of lysis solution is added to the lower chamber of the Transwells. After incubation at room temperature, in the dark with constant agitation for 5 minutes, 150 μL of cell lysate is transferred in a 96 wells white plate and incubated for 10 minutes in the dark. Luminescence is read on a TECAN plate reader, Infinite M1000 (Tecan, Morrisville, NC).
The compound numbers correspond to the compound numbers in Table 1. […] Normalization of the results takes the donor's variation into account.

[3] = test system: mouse dextran sodium sulfate-induced chronic inflammatory bowel disease model; conditions: once-daily doses of 3 and 10 mg/kg, mouse DSS-induced chronic IBD model; cited from earlier work
[4] = target: T1, GPR84; conditions: literature (Wang et al. 2006); read-out: potency of GPR84 activation; cited from earlier work
Target sequence in this assay (Q9NQS5 whole entry, species assumed): as the sequence (Q9NQS5 whole entry) above

Row | Compound | inhibition at 10 µM [1] [%] | further results
1 | Cc1cc(OCC2COCCO2)cc(=O)n1Cc1cccc(C#CC2CC2)c1 (stereo not drawn) [Compound I-2] | – | IC50 [1]: < 5 µM; inhibition at 25 µM ([1]; compound tested at 25 μM (concentration code G)): > 75%; Human Neutrophil migration inhibition - fold potency to Control Compound [2]: C (IC50≤0.5-fold relative to Control Compound); IC50 [2]: > 3 µM
2 | Cc1cc(OC[C@H]2COc3ccccc3O2)cc(=O)n1Cc1cccc(C#CC2CC2)c1 [Compound I-30] | – | inhibition at 2 µM [1]: 25 to 50%; Human Neutrophil migration inhibition - fold potency to Control Compound [2]: C (IC50≤0.5-fold relative to Control Compound); IC50 [2]: 1 to 3 µM
3 | Cc1cc(OCC2CCCOC2)cc(=O)n1[C@H](C)c1ccc(C#CC2CC2)cc1 (stereo partly drawn) [Compound I-222] | > 75 | IC50 [2]: 1 to 3 µM
4 | Cc1cc(OCc2ncccn2)cc(=O)n1[C@H](C)c1ccc(C#CC2CC2)cc1 [Compound I-223] | > 75 | IC50 [1]: < 5 µM; Human Neutrophil migration inhibition - fold potency to Control Compound [2]: B (IC50 of >0.5-≤1.0-fold relative to Control Compound); IC50 [2]: ≤ 0.3 µM
5 | Cc1cc(OCn2ccnc2)cc(=O)n1[C@H](C)c1ccc(C#CC2CC2)cc1 [Compound I-308] | > 75 | –
6 | CCCCCc1ccc([C@@H](C)n2c(C)cc(OCc3ncccn3)cc2=O)cc1 [Compound I-309] | < 25 | –
7 | Cc1cc(OCc2ncccn2)cc(=O)n1[C@H](C)c1ccc(CCC2CC2)cc1 [Compound I-310] | 25 to 50 | –
8 | Cc1cc(OCc2cncs2)cc(=O)n1[C@H](C)c1ccc(C#CC2CC2)cc1 [Compound I-311] | – | inhibition at 2 µM [1]: > 75%
9 | Cc1cc(OCc2ncccn2)cc(=O)n1C(C)c1ccc(C#CCNc2ccccc2)cc1 (stereo not drawn) [Compound I-312] | < 25 | –
10 | Cc1cc(OCc2cn(C)cn2)cc(=O)n1[C@H](C)c1ccc(C#CC2CC2)cc1 [Compound I-313] | > 75 | –
11 | Cc1cc(OCc2ncccn2)cc(=O)n1[C@H](C)c1ccc(C#CC2CCC2)cc1 [Compound I-314] | > 75 | –
12 | Cc1cc(OCc2cnccc2Cl)cc(=O)n1[C@H](C)c1ccc(C#CC2CC2)cc1 [Compound I-315] | – | IC50 [1]: < 5 µM; inhibition at 2 µM [1]: > 75%
13 | CNC(=O)c1ccc([C@@H](C)n2c(C)cc(OCc3ncccn3)cc2=O)cc1 [Compound I-316] | < 25 | –
14 | CC[C@H](c1ccc(C#CC2CC2)cc1)n1c(C)cc(OCc2ncccn2)cc1=O [Compound I-317] | > 75 | –
15 | COc1cccnc1COc1cc(C)n([C@H](C)c2ccc(C#CC3CC3)cc2)c(=O)c1 [Compound I-318] | > 75 | IC50 [1]: < 5 µM
16 | Cc1cc(OCc2ncccn2)nc(=O)n1C(C)c1ccc(C#CC2CC2)cc1 (stereo not drawn) [Compound I-320] | 50 to 75 | –
17 | CC(c1ccc(C#CC2CC2)cc1)n1c(Cl)cc(OCc2ncccn2)cc1=O (stereo not drawn) [Compound I-321] | > 75 | –
18 | Cc1cc(OCc2ncccn2)cc(=O)n1[C@H](C)c1ccc(C2CC2)cc1 [Compound I-322] | < 25 | –
19 | Cc1cc(OCc2cnc(C3CC3)cn2)cc(=O)n1[C@H](C)c1ccc(C#CC2CC2)cc1 [Compound I-323] | > 75 | –
20 | Cc1cc(OCc2ncccn2)cc(=O)n1C(CC(F)(F)F)c1ccc(C#CC2CC2)cc1 (stereo not drawn) [Compound I-324] | > 75 | IC50 [1]: < 5 µM
21 | Cc1cc(OCc2ncccn2)cc(=O)n1[C@H](C)c1ccc(C#CC2CC2)c(F)c1 [Compound I-325] | > 75 | IC50 [1]: < 5 µM
22 | Cc1cc(OCc2ncccn2)cc(=O)n1[C@@H](C)c1ccc(C#CC2CC2)c(F)c1 [Compound I-326] | – | IC50 [1]: 10 to 15 µM; inhibition at 1 µM ([1]; compound tested at 1 μM (concentration code A*)): 25 to 50%
23 | Cc1cc(OCc2ncccc2F)cc(=O)n1C(C)c1ccc(C#CC2CC2)nc1 (stereo not drawn) [Compound I-327] | 50 to 75 | –
24 | Cc1cc(OCc2ncccn2)cc(=O)n1[C@H](C)c1ccc(C#Cc2ccccc2)cc1 [Compound I-329] | < 25 | –
25 | Cc1cc(OCc2ncccn2)cc(=O)n1C(C)c1cnc(C#CC2CC2)nc1 (stereo not drawn) [Compound I-340] | < 25 | –
26 | CCCOc1ccc(C(C)n2c(C)cc(OCc3ncccn3)cc2=O)cc1 (stereo not drawn) [Compound I-343] | < 25 | –
27 | Cc1cc(OCc2ncccn2)cc(=O)n1[C@H](C)c1ccc(-c2ccccc2)cc1 [Compound I-344] | < 25 | –
28 | CCCCCCOc1ccc(C(C)n2c(C)cc(OCc3ncccn3)cc2=O)cc1 (stereo not drawn) [Compound I-345] | < 25 | –

Row | Compound | inhibition at 10 µM [1] [%] | further results
29 | Cc1cc(OCc2ncccn2)cc(=O)n1[C@H](C)c1ccc(-c2cnc(C3CC3)nc2)cc1 [Compound I-347] | < 25 | –
30 | Cc1cc(OCc2nccn2C(C)C)cc(=O)n1[C@H](C)c1ccc(C#CC2CC2)cc1 [Compound I-348] | > 75 | –
31 | Cc1cc(OCc2cncn2C)cc(=O)n1[C@H](C)c1ccc(C#CC2CC2)cc1 [Compound I-349] | – | inhibition at 2 µM [1]: > 75%
32 | Cc1cc(OCc2ccn(C)n2)cc(=O)n1[C@H](C)c1ccc(C#CC2CC2)cc1 [Compound I-350] | > 75 | –
33 | Cc1cc(OCc2ccnn2C)cc(=O)n1[C@H](C)c1ccc(C#CC2CC2)cc1 [Compound I-351] | > 75 | IC50 [1]: < 5 µM
34 | Cc1cc(OCc2cnn(C)c2)cc(=O)n1[C@H](C)c1ccc(C#CC2CC2)cc1 [Compound I-352] | > 75 | –
35 | C#Cc1ccc(C(C)n2c(C)cc(OCc3ncccn3)cc2=O)cc1 (stereo not drawn) [Compound I-353] | < 25 | –
36 | Cc1cc(OCc2ncccn2)cc(=O)n1C(C)c1ccc2cc(C3CC3)ccc2c1 (stereo not drawn) [Compound I-354] | – | inhibition at 2 µM [1]: < 25%
37 | Cc1cc(OCc2ncc[nH]2)cc(=O)n1[C@H](C)c1ccc(C#CC2CC2)cc1 [Compound I-355] | 25 to 50 | –
38 | CCn1ccnc1COc1cc(C)n([C@H](C)c2ccc(C#CC3CC3)cc2)c(=O)c1 [Compound I-356] | – | IC50 [1]: < 5 µM; inhibition at 2 µM [1]: > 75%
39 | Cc1cc(OCc2cn(C)nn2)cc(=O)n1[C@H](C)c1ccc(C#CC2CC2)cc1 [Compound I-357] | – | IC50 [1]: < 5 µM; inhibition at 2 µM [1]: > 75%
40 | Cc1cc(OCc2cnn(C)n2)cc(=O)n1[C@H](C)c1ccc(C#CC2CC2)cc1 [Compound I-358] | > 75 | –
41 | Cc1cc(OCc2cnnn2C)cc(=O)n1[C@H](C)c1ccc(C#CC2CC2)cc1 [Compound I-359] | > 75 | IC50 [1]: < 5 µM
42 | Cc1cc(NC(=O)c2ncccn2)cc(=O)n1[C@H](C)c1ccc(C#CC2CC2)cc1 [Compound I-360] | > 75 | IC50 [1]: < 5 µM
43 | Cc1cc(OCc2nccn2C)cc(=O)n1C(C)c1ccc(C#CC2CC2)c(F)c1 (stereo not drawn) [Compound I-361] | – | IC50 [1]: < 5 µM; inhibition at 2 µM [1]: > 75%
44 | Cc1cc(OCc2ncccn2)cc(=O)n1C(C)c1cc(F)c(C#CC2CC2)c(F)c1 (stereo not drawn) [Compound I-362] | > 75 | –
45 | Cc1cc(OCc2cccnn2)cc(=O)n1C(C)c1ccc(C#CC2CC2)c(F)c1 (stereo not drawn) [Compound I-363] | – | IC50 [1]: < 5 µM; inhibition at 2 µM [1]: > 75%
46 | Cc1cc(OCc2cncnc2)cc(=O)n1C(C)c1ccc(C#CC2CC2)c(F)c1 (stereo not drawn) [Compound I-364] | > 75 | IC50 [1]: < 5 µM
47 | Cc1cc(OCc2ncco2)cc(=O)n1C(C)c1ccc(C#CC2CC2)c(F)c1 (stereo not drawn) [Compound I-365] | > 75 | –
48 | Cc1cc(OCc2ncccn2)cc(=O)n1C(C)c1ccc(C#CC2CCC2)c(F)c1 (stereo not drawn) [Compound I-366] | > 75 | –
49 | Cc1cc(OCc2ncccn2)cc(=O)n1C(C)C1CCN(c2ccc(C3CC3)cc2)CC1 (stereo not drawn) [Compound I-368] | < 25 | –
50 | Cc1cc(OCc2c(F)ccc[n+]2[O-])cc(=O)n1[C@H](C)c1ccc(C#CC2CC2)cc1 [Compound I-369] | > 75 | –
51 | Cc1cc(N(C)Cc2ncccn2)cc(=O)n1[C@H](C)c1ccc(C#CC2CC2)cc1 [Compound I-372] | > 75 | –
52 | Cc1cc([C@@H](C)n2c(C)cc(OCc3ncccn3)cc2=O)ccc1C#CC1CC1 [Compound I-373] | > 75 | –
53 | Cc1cc(OC[C@@H]2COCCO2)cc(=O)n1[C@H](C)c1ccc(C#CC2CC2)cc1 [Compound I-396] | – | IC50 [1]: < 5 µM
54 | O=c1nc(OC[C@@H]2COCCO2)cc2n1CCc1cc(C#CC3CC3)ccc1-2 [GLPG1205] | – | disease activity index score [3]: reduced; neutrophil infiltration [3]: reduced
55 | CCCCCCCCCCCC(=O)O [lauric acid] | – | EC50 [4]: 11 µM
